Molecular target: T1, DHPR (Escherichia coli, UniProt P04036)
T1 construct: made in house; host or cells: E. coli BL21 (DE3) Gold
Test: binding of ligands to DHPR (dissociation constants)
Design: species or system E. coli
Text: The resonance assignments for DHPR residues Thr80, Thr104 and Met17 were obtained as follows. Differential chemical shift perturbation was observed by comparing the spectra of MIT-DHPR bound to 2,6-pyridinedicarboxylate (PDC) and the spectra of MIT-DHPR bound to 4-Cl PDC. Distinct changes in chemical shift for only one of the methionine ^13C^ε/^1H^ε resonances was detected, which therefore identified the signals as being associated with M17 as shown in FIG. 1D. Both PDC and 4-Cl PDC bound to DHPR with micromolar dissociation constants, so that, at the concentrations used, the protein was saturated in both samples. Therefore, the resultant chemical shift differences originate solely from the small perturbation introduced by binding slightly different ligands. Similarly, resonance assignments were obtained for residues T104 and […] with differential chemical shifts comparing spectra obtained for complexes formed with NADH and 3-acetyl pyridine NADH.

T1 sequence (P04036 whole entry): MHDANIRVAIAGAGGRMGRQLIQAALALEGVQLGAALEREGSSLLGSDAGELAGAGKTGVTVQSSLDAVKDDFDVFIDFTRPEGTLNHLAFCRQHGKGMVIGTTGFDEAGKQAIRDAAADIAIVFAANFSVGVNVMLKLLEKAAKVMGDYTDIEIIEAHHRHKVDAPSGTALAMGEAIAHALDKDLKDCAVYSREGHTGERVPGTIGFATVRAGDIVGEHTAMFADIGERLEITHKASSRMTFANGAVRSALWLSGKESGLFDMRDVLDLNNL

SMILES | dissociation constants
O=C(O)c1cccc(C(=O)O)n1 [PDC, 2,6-pyridinedicarboxylate] | micromolar
O=C(O)c1cc(Cl)cc(C(=O)O)n1 [4-Cl PDC] | micromolar

— US20050234652A1, “Nuclear magnetic resonance-docking of compounds” (Triad Therapeutics, Inc., priority 2001, published 2005)
